In article PMC9421653 (Journal of Medicinal Chemistry, 2022):
Converted amounts (≈) assume the structure as drawn.

Key:
human GPR84 [1] = molecular target: T1, human GPR84 (Homo sapiens, UniProt Q9NQS5); test: biochemical; type: biochemical; conditions: [35S]GTPγS assay; negative log of the IC50 in molar; mean ± SEM; read-out: GTPγS (pIC50) (converted)
T1 construct: expressed in transfected cells; host or cells: Flp-In T-REx 293 cells, doxycycline-induced; membrane preparations

physchem = conditions: pH 7.4, Kinetic Solubility
Excerpt: DPI = 4,5-Diphenylimidazole
(2 pictures or pasted objects on this page, not shown here)

human GPR84 [2] = molecular target: T2, human GPR84 (Homo sapiens, UniProt P04899+Q9NQS5); test: biochemical; type: biochemical; conditions: for LLE: LLE = pIC50 – CLog P; for GTPγS (pIC50): [35S]GTPγS assay, negative log of the IC50 in molar, mean ± SEM
T2 construct: expressed in transfected cells; host or cells: Flp-In T-REx 293 cells, doxycycline-induced; membrane preparations

[3] = Mean, PBS pH7.4 in 2% DMSO by LC-MS
[4] = Mean, PBS pH7.4 in 2% DMSO by plate reader
[5] = R=1, PBS pH7.4 in 2% DMSO by LC-MS, replicate 1
[6] = R=1, PBS pH7.4 in 2% DMSO by plate reader, replicate 1
[7] = R=2, PBS pH7.4 in 2% DMSO by LC-MS, replicate 2
[8] = R=2, PBS pH7.4 in 2% DMSO by plate reader, replicate 2

T1 sequence (Q9NQS5+P04899 fused): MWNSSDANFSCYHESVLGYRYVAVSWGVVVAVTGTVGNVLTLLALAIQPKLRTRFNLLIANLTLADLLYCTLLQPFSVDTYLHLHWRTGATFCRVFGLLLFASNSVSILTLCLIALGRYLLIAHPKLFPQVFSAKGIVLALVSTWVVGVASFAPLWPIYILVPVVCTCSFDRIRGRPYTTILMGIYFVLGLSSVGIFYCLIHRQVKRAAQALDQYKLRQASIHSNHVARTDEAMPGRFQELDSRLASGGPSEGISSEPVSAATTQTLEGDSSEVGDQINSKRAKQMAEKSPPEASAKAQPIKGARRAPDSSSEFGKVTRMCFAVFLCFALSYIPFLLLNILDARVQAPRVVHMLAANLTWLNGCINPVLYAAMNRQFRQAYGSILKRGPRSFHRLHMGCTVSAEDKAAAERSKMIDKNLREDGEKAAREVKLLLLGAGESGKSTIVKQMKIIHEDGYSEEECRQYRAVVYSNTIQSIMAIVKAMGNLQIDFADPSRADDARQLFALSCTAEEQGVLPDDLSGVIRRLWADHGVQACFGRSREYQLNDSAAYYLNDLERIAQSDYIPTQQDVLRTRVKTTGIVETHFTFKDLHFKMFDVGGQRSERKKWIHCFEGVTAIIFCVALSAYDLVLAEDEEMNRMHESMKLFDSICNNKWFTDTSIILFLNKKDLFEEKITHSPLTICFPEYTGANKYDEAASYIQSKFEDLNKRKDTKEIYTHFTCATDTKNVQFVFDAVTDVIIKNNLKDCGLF
T2 sequence (Q9NQS5+P04899 fused): as above

NC(=O)CNC(=O)c1ccc(-c2nc(Cc3c[nH]c4ccccc34)nnc2-c2ccccc2)cc1 [Compound 90, 4-(3-((1H-Indol-3-yl)methyl)-6-phenyl-1,2,4-triazin-5-yl)-N-(2-amino-2-oxoethyl)benzamide]
IC50 (human GPR84 [1]): 380 nM

CN1CCN(C(=O)c2ccc(-c3nc(Cc4c[nH]c5ccccc45)nnc3-c3ccccc3)cc2)CC1=O [Compound 89, 4-(4-(3-((1H-Indol-3-yl)methyl)-6-phenyl-1,2,4-triazin-5-yl)benzoyl)-1-methylpiperazin-2-one]
IC50 (human GPR84 [1]): 490 nM

O=C(NCCO)c1ccc(-c2nc(Cc3c[nH]c4ccccc34)nnc2-c2ccccc2)cc1 [Compound 85, 4-(3-((1H-Indol-3-yl)methyl)-6-phenyl-1,2,4-triazin-5-yl)-N-(2-hydroxyethyl)benzamide]
IC50 (human GPR84 [1]): 28.8 nM

CC(=O)N1CCN(c2ccc(OCC3COC(Cn4ccnc4)(c4ccc(Cl)cc4Cl)O3)cc2)CC1 (stereo not shown) [Ketoconazole, reference compound]
solubility kinetic (physchem; [3]): 103 µM (≈ 54.7 µg/mL) | solubility kinetic (physchem; [4]): 129 µM (≈ 68.6 µg/mL) | solubility kinetic (physchem; [5]): 101 µM (≈ 53.7 µg/mL) | solubility kinetic (physchem; [6]): 128 µM (≈ 68 µg/mL) | solubility kinetic (physchem; [7]): 105 µM (≈ 55.8 µg/mL) | solubility kinetic (physchem; [8]): 129 µM (≈ 68.6 µg/mL)

c1ccc(-c2nc[nH]c2-c2ccccc2)cc1 [DPI, 4,5-Diphenylimidazole, reference compound]
solubility kinetic (physchem; [3]): 27 µM (≈ 5.95 µg/mL) | solubility kinetic (physchem; [4]): 30 µM (≈ 6.61 µg/mL) | solubility kinetic (physchem; [5]): 25 µM (≈ 5.51 µg/mL) | solubility kinetic (physchem; [6]): 28 µM (≈ 6.17 µg/mL) | solubility kinetic (physchem; [7]): 28 µM (≈ 6.17 µg/mL) | solubility kinetic (physchem; [8]): 32 µM (≈ 7.05 µg/mL)

CN(C)CCNC(=O)c1ccc(-c2nc(Cc3c[nH]c4ccccc34)nnc2-c2ccccc2)cc1 [Compound 84, 4-(3-((1H-Indol-3-yl)methyl)-6-phenyl-1,2,4-triazin-5-yl)-N-(2-(dimethylamino)ethyl)benzamide]
IC50 (human GPR84 [1]): 1000 nM

Cc1nnc(Cc2c[nH]c3ccccc23)nc1-c1ccccc1 [Compound 28, 3-[(6-Methyl-5-phenyl-1,2,4-triazin-3-yl)methyl]-1H-indole]
LLE (human GPR84 [2]): 1.73 | IC50 (human GPR84 [1]): 10200 nM

CN1CCN(C(=O)c2ccc(-c3nc(Cc4c[nH]c5ccccc45)nnc3-c3ccccc3)cc2)CC1 [Compound 86, (4-(3-((1H-Indol-3-yl)methyl)-6-phenyl-1,2,4-triazin-5-yl)phenyl)(4-methylpiperazin-1-yl)methanone]
IC50 (human GPR84 [1]): 955 nM

Methyl 3-(3-((1H-Indol-3-yl)methyl)-6-phenyl-1,2,4-triazin-5-yl)benzoate [Compound 54]
GTPγS (pIC50) (human GPR84 [2]): 6.94 ± 0.03

COC(=O)c1ccc(-c2nc(Cc3c[nH]c4cnccc34)nnc2-c2ccccc2)cc1 [Compound 65, Methyl 4-(3-((1H-Pyrrolo[2,3-c]pyridin-3-yl)methyl)-6-phenyl-1,2,4-triazin-5-yl)benzoate]
GTPγS (pIC50) (human GPR84 [2]): 7.37 ± 0.33

CN(C)CCNC(=O)c1ccc(-c2nnc(Cc3c[nH]c4ccccc34)nc2-c2ccccc2)cc1 [Compound 75, 4-(3-((1H-Indol-3-yl)methyl)-5-phenyl-1,2,4-triazin-6-yl)-N-(2-(dimethylamino)ethyl)benzamide]
GTPγS (pIC50) (human GPR84 [2]): 5.54 ± 0.10

Cc1nc(Cc2c[nH]c3ccccc23)nnc1-c1ccccc1 [Compound 29, 3-[(5-Methyl-6-phenyl-1,2,4-triazin-3-yl)methyl]-1H-indole]
LLE (human GPR84 [2]): 1.99 | IC50 (human GPR84 [1]): 5620 nM

c1ccc(-c2nnc(Cc3c[nH]c4cnccc34)nc2-c2cnccn2)cc1 [Compound 59, 3-((6-Phenyl-5-(pyrazin-2-yl)-1,2,4-triazin-3-yl)methyl)-1H-pyrrolo[2,3-c]pyridine]
GTPγS (pIC50) (human GPR84 [2]): 5.38 ± 0.12

CC(C)c1nnc(Cc2c[nH]c3ccccc23)nc1C(C)C [Compound 9, 3-((5,6-Diisopropyl-1,2,4-triazin-3-yl)methyl)-1H-indole]
GTPγS (pIC50) (human GPR84 [2]): 5.38 ± 0.05

CC(=O)NCCNC(=O)c1ccc(-c2nc(Cc3c[nH]c4ccccc34)nnc2-c2ccccc2)cc1 [Compound 88, 4-(3-((1H-Indol-3-yl)methyl)-6-phenyl-1,2,4-triazin-5-yl)-N-(2-acetamidoethyl)benzamide]
IC50 (human GPR84 [1]): 209 nM

Fc1ccc2c(Cc3nnc(-c4ccccc4)c(-c4ccccc4)n3)c[nH]c2c1 [Compound 15, 3-((5,6-Diphenyl-1,2,4-triazin-3-yl)methyl)-6-fluoro-1H-indole]
GTPγS (pIC50) (human GPR84 [2]): 6.65 ± 0.03

c1ccc(-c2nc(Cc3c[nH]c4ccccc34)nnc2-c2cccnn2)cc1 [Compound 31, 3-((5-Phenyl-6-(pyridazin-3-yl)-1,2,4-triazin-3-yl)methyl)-1H-indole]
GTPγS (pIC50) (human GPR84 [2]): 6.85 ± 0.03

CC(=O)NCCNC(=O)c1ccc(-c2nnc(Cc3c[nH]c4ccccc34)nc2-c2ccccc2)cc1 [Compound 79, 4-(3-((1H-Indol-3-yl)methyl)-5-phenyl-1,2,4-triazin-6-yl)-N-(2-acetamidoethyl)benzamide]
GTPγS (pIC50) (human GPR84 [2]): 6.26 ± 0.06

CS(=O)(=O)NCc1ccc(-c2nc(Cc3c[nH]c4ccccc34)nnc2-c2ccccc2)cc1 [Compound 47, N-(4-(3-((1H-indol-3-yl)methyl)-6-phenyl-1,2,4-triazin-5-yl)benzyl)methanesulfonamide]
GTPγS (pIC50) (human GPR84 [2]): 6.72 ± 0.06

c1ccc(-c2nnc(CCc3cccnc3)nc2-c2ccccc2)cc1 [Compound 22, 5,6-Diphenyl-3-(2-(pyridin-3-yl)ethyl)-1,2,4-triazine]
GTPγS (pIC50) (human GPR84 [2]): 5.00 ± 0.17

c1ccc(-c2nnc(Cc3c[nH]c4cnccc34)nc2-c2ccc(CN3CCOCC3)cc2)cc1 [Compound 63, 4-(4-(3-((1H-Pyrrolo[2,3-c]pyridin-3-yl)methyl)-6-phenyl-1,2,4-triazin-5-yl)benzyl)morpholine]
GTPγS (pIC50) (human GPR84 [2]): 7.27 ± 0.06

COCCNC(=O)c1ccc(-c2nc(Cc3c[nH]c4ccccc34)nnc2-c2ccccc2)cc1 [Compound 87, 4-(3-((1H-Indol-3-yl)methyl)-6-phenyl-1,2,4-triazin-5-yl)-N-(2-methoxyethyl)benzamide]
IC50 (human GPR84 [1]): 72.4 nM

c1ccc(-c2nnc(Cc3c[nH]c4cnccc34)nc2-c2ccnnc2)cc1 [Compound 61, 3-((6-Phenyl-5-(pyridazin-4-yl)-1,2,4-triazin-3-yl)methyl)-1H-pyrrolo[2,3-c]pyridine]
GTPγS (pIC50) (human GPR84 [2]): 5.84 ± 0.10

c1csc(-c2nnc(Cc3c[nH]c4ccccc34)nc2-c2cccs2)c1 [Compound 11, 3-((5,6-Di(thiophen-2-yl)-1,2,4-triazin-3-yl)methyl)-1H-indole]
GTPγS (pIC50) (human GPR84 [2]): 7.62 ± 0.05

CN1CCN(C(=O)c2ccc(-c3nnc(Cc4c[nH]c5ccccc45)nc3-c3ccccc3)cc2)CC1=O [Compound 80, 4-(4-(3-((1H-Indol-3-yl)methyl)-5-phenyl-1,2,4-triazin-6-yl)benzoyl)-1-methylpiperazin-2-one]
GTPγS (pIC50) (human GPR84 [2]): 6.69 ± 0.04

c1ccc(-c2nc(Cc3c[nH]c4cnccc34)nnc2-c2ccc(CN3CCOCC3)cc2)cc1 [Compound 64, 4-(4-(3-((1H-Pyrrolo[2,3-c]pyridin-3-yl)methyl)-5-phenyl-1,2,4-triazin-6-yl)benzyl)morpholine]
GTPγS (pIC50) (human GPR84 [2]): 8.33 ± 0.15

COC(=O)c1ccc(-c2nc(Cc3c[nH]c4ccccc34)nnc2-c2ccccc2)cc1 [Compound 49, Methyl 4-(3-((1H-Indol-3-yl)methyl)-6-phenyl-1,2,4-triazin-5-yl)benzoate]
GTPγS (pIC50) (human GPR84 [2]): 6.74 ± 0.05

O=C(NCCO)c1ccc(-c2nc(Cc3c[nH]c4cnccc34)nnc2-c2ccccc2)cc1 [Compound 69, 4-(3-((1H-Pyrrolo[2,3-c]pyridin-3-yl)methyl)-6-phenyl-1,2,4-triazin-5-yl)-N-(2-hydroxyethyl)benzamide]
GTPγS (pIC50) (human GPR84 [2]): 6.84 ±0.05

CC(=O)OCc1ccc(-c2nnc(Cc3c[nH]c4ccccc34)nc2-c2ccccc2)cc1 [Compound 38, 4-(3-((1H-Indol-3-yl)methyl)-5-phenyl-1,2,4-triazin-6-yl)benzyl Acetate]
GTPγS (pIC50) (human GPR84 [2]): 8.06 ± 0.27

O=C(c1ccc(-c2nc(Cc3c[nH]c4ccccc34)nnc2-c2ccccc2)cc1)N1CCOCC1 [Compound 83, (4-(3-((1H-Indol-3-yl)methyl)-6-phenyl-1,2,4-triazin-5-yl)phenyl)(morpholino)methanone]
IC50 (human GPR84 [1]): 209 nM

CN(C)Cc1ccc(-c2nnc(Cc3c[nH]c4ccccc34)nc2-c2ccccc2)cc1 [Compound 44, 1-(4-(3-((1H-Indol-3-yl)methyl)-5-phenyl-1,2,4-triazin-6-yl)phenyl)-N,N-dimethylmethanamine]
GTPγS (pIC50) (human GPR84 [2]): 6.68 ± 0.05
